Reference: patent US9422267B2, “Fused pyrimidine compounds and use thereof” (Medivation Technologies, Inc., priority 2012, dated 2016)
Read-outs that look alike come from different tables or passages of the source.

Key:
IGF1R = IGF1R (Homo sapiens, UniProt P08069); test: In vitro IGF-1R enzymatic assay (ADP-Glo kinase assay); format: biochemical; set-up: purchased Millipore 14-802; conditions: activated IGF-1R; for inhibition at 0.03 µM: 30 nM; for IC50: read-out: IC50
Procedure: (§1) IC50 values of the compounds of the invention against IGF-1R and IR were measured in vitro using an ADP-Glo kinase assay Kit (Promega). […] Kinase reactions in both assays were conducted at 30° C. for 20 min with increasing concentrations of compounds of the invention.

[1] = tested on: Akt phosphorylation induced by IGF-1R in HT-29 cells; test: Western blot analysis of Akt phosphorylation induced by IGF-1R; format: cell-based, Human; conditions: then IGF-1 10 ng/mL 10 min, HT-29
Procedure: Inhibition of Akt phosphorylation induced by IGF-1R was studied by western blot analysis. Human colon carcinoma HT-29 cells were seeded at a density of 8×10^4 cells/well in a 24-well plate and grown in DME/F12 media containing 10% FBS for 24 h. The cells were then depleted of serum by incubation in DME/F12 media lacking FBS for 24 h. […] […] Lysed cells were centrifuged at 13,000 rpm for 15 min and the protein concentration soluble fraction (supernatant) of each sample was determined using a BCA protein assay (Pierce).

IR = target: T1, IR (Homo sapiens, UniProt P06213); test: In vitro IR enzymatic assay (ADP-Glo kinase assay); format: biochemical; conditions: activated IR; for IC50: read-out: IC50; for inhibition at 0.03 µM: 30 nM
T1 construct: purchased Millipore 14-803
T1 sequence (P06213 28-1382): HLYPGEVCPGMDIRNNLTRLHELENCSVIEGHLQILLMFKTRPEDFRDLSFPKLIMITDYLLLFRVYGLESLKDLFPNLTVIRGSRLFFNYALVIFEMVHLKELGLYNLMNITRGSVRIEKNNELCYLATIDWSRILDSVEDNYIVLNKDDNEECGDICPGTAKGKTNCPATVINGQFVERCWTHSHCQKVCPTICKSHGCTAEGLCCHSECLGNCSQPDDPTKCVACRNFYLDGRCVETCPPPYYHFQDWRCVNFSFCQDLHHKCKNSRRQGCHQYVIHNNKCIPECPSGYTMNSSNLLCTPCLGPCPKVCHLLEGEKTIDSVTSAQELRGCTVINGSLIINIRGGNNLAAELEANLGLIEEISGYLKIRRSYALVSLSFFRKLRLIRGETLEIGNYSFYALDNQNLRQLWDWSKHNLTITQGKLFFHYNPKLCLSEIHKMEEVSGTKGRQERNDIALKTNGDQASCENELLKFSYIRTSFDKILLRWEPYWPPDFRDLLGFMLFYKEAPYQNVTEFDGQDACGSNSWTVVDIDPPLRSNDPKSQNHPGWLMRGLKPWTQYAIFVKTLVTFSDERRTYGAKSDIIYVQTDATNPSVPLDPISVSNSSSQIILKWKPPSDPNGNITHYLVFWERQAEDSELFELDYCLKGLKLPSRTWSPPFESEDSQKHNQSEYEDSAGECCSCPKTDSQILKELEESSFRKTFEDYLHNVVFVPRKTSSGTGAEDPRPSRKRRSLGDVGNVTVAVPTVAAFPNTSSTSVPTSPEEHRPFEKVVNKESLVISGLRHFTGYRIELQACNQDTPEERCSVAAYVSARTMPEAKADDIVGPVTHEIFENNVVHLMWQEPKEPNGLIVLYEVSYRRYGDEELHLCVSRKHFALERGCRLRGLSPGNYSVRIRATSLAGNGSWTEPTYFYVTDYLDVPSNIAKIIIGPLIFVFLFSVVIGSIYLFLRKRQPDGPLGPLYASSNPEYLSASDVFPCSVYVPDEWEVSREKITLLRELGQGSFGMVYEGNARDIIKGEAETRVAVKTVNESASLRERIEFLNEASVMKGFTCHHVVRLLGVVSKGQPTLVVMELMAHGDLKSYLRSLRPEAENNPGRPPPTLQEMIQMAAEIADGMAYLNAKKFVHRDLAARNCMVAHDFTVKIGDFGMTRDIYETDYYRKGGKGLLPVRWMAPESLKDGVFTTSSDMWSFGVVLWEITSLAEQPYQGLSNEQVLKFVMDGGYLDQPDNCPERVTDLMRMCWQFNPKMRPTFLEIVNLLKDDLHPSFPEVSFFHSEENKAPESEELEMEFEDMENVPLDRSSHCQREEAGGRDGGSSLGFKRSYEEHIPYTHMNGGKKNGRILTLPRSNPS
Procedure: as §1

[2] = average, read-out: % Inh @ 30 nM Avg
[3] = replicate N1, read-out: % Inh @ 30 nM (N1)
[4] = replicate N2, read-out: % Inh @ 30 nM (N2)

Sequence of IGF1R (P08069 31-1367): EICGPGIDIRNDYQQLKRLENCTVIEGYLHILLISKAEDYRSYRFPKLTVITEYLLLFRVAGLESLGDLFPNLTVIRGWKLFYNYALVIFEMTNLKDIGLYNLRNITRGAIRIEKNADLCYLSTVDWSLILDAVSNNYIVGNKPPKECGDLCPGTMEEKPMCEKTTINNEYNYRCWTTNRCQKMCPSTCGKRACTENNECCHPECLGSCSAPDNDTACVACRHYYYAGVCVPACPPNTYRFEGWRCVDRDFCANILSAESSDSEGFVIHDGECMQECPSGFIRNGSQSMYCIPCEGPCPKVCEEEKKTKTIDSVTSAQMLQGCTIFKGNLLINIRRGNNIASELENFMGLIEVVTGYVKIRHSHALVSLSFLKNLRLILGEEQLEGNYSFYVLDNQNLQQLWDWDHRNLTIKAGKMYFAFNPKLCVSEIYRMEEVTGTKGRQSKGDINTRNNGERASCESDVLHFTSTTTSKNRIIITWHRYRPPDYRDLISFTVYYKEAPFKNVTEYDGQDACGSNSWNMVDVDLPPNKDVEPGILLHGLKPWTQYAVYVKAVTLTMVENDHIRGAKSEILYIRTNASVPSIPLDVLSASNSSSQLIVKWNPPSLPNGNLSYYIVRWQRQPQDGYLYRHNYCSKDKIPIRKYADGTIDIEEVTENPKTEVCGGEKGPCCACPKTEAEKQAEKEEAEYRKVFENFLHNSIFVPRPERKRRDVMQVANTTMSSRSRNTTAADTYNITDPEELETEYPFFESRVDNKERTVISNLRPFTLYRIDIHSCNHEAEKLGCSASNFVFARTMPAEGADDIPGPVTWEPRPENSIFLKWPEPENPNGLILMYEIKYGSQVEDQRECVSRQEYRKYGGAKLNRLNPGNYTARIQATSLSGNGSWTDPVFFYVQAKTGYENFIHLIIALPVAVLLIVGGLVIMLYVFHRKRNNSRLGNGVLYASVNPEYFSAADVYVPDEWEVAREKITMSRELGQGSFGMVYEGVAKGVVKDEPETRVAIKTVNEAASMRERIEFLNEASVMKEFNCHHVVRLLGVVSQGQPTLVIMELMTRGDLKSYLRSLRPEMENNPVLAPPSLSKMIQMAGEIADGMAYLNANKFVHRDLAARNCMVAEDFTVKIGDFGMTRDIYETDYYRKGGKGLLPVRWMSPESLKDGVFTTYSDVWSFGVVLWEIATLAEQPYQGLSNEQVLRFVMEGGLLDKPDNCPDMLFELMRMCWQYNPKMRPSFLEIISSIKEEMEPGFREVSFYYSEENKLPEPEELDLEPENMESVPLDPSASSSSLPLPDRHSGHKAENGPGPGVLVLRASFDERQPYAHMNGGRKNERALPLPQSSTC

Row | inhibition at 0.03 µM (IGF1R; [2]) [%] | inhibition at 0.03 µM (IGF1R; [3]) [%] | IC50 (IR) [nM] | inhibition at 0.03 µM (IGF1R; [4]) [%] | SMILES | phosphorylated AKT levels normalized to actin levels (pAKT/actin) ([1]; 0.1 nM compound 2 h) | phosphorylated AKT levels normalized to actin levels (pAKT/actin) ([1]; 1 nM compound 2 h) | phosphorylated AKT levels normalized to actin levels (pAKT/actin) ([1]; 10 nM compound 2 h) | other results
1 | 21 | 27 |  |  | CC(C)c1cc(Nc2nc(N3CCCCC3C(=O)Nc3ccc(F)nc3)nc3c2CCC3)n[nH]1 (single isomer, unassigned) [Compound 16a, N-(6-fluoropyridin-3-yl)-1-(4-(5-isopropyl-1H-pyrazol-3-ylamino)-6,7-dihydro-5H-cyclopenta[d]pyrimidin-2-yl)piperidine-2-carboxamide] | 0.82 | 0.62 | 0.61 | phosphorylated AKT levels normalized to actin levels (pAKT/actin) ([1]; 100 nM compound 2 h): 0.30
2 |  |  | 13 |  | CC(C)c1cc(Nc2nc(N3CCCC3C(=O)Nc3ccc(F)nc3)nc3c2CCCC3)n[nH]1 (single isomer, unassigned) [Compound 13b, N-(6-fluoropyridin-3-yl)-1-(4-(5-isopropyl-1H-pyrazol-3-ylamino)-5,6,7,8-tetrahydroquinazolin-2-yl)pyrrolidine-2-carboxamide] | 0.22 | 0.09 | 0.00 | IC50 (IGF1R): 17 nM; phosphorylated AKT levels normalized to actin levels (pAKT/actin) ([1]; 100 nM compound 2 h): 0.00
3 | 18 | 12 |  | 24 | O=C(Nc1ccc(F)nc1)C1CCCCN1c1nc2c(c(Nc3cc(C4CCCC4)[nH]n3)n1)CCC2 (single isomer, unassigned) [Compound 17a, 1-(4-(5-cyclopentyl-1H-pyrazol-3-ylamino)-6,7-dihydro-5H-cyclopenta[d]pyrimidin-2-yl)-N-(6-fluoropyridin-3-yl)piperidine-2-carboxamide] | 0.89 |  |  | inhibition at 0.03 µM (IR; [2]): 3%; inhibition at 0.03 µM (IR; [3]): 2%; inhibition at 0.03 µM (IR; [4]): 5%
4 |  |  | 120 |  | COC1CC(C(=O)Nc2ccc(F)nc2)N(c2nc3c(c(Nc4cc(C5CC5)[nH]n4)n2)CCC3)C1 (single isomer, unassigned) [Compound 21b] |  |  |  | inhibition at 0.03 µM (IR; [2]): 30%
5 |  |  | 44 |  | CC(C)c1cc(Nc2nc(N3CC(O)CC3C(=O)Nc3nccs3)nc3c2CCC3)n[nH]1 (racemic) [Compound 71, 4-hydroxy-1-(4-(5-isopropyl-1H-pyrazol-3-ylamino)-6,7-dihydro-5H-cyclopenta[d]pyrimidin-2-yl)-N-(thiazol-2-yl)pyrrolidine-2-carboxamide] |  |  |  | 
6 | 13 | 17 |  | 10 | O=C(Nc1ccc(F)nc1)C1C(O)CCN1c1nc2c(c(Nc3cc(C4CC4)[nH]n3)n1)CCC2 (single isomer, unassigned) [Compound 11a] |  |  |  | 
7 |  |  | 22 |  | CC(C)c1cc(Nc2nc(N3CC(O)CC3C(=O)Nc3ccc(F)nc3)nc3c2CCC3)n[nH]1 (racemic) [Compound 70, N-(6-fluoropyridin-3-yl)-4-hydroxy-1-(4-(5-isopropyl-1H-pyrazol-3-ylamino)-6,7-dihydro-5H-cyclopenta[d]pyrimidin-2-yl)pyrrolidine-2-carboxamide] |  |  |  | 
8 |  |  | 32 |  | CC(C)c1cc(Nc2nc(N3CCCC3C(=O)Nc3ccncn3)nc3c2CCC3)n[nH]1 (racemic) [Compound 69, 1-(4-(5-isopropyl-1H-pyrazol-3-ylamino)-6,7-dihydro-5H-cyclopenta[d]pyrimidin-2-yl)-N-(pyrimidin-4-yl)pyrrolidine-2-carboxamide] |  |  |  | 
9 |  |  | 11 |  | CC(C)c1cc(Nc2nc(N3CCCC3C(=O)Nc3nccs3)nc3c2CCC3)n[nH]1 (racemic) [Compound 68, 1-(4-(5-isopropyl-1H-pyrazol-3-ylamino)-6,7-dihydro-5H-cyclopenta[d]pyrimidin-2-yl)-N-(thiazol-2-yl)pyrrolidine-2-carboxamide] |  |  |  | 
10 | 19 | 17 |  | 20 | O=C(Nc1ccc(F)nc1)C1CCCN1c1nc2c(c(Nc3cc(C4CCCC4)[nH]n3)n1)CCCC2 (single isomer, unassigned) [Compound 15a, 1-(4-(5-cyclopentyl-1H-pyrazol-3-ylamino)-5,6,7,8-tetrahydroquinazolin-2-yl)-N-(6-fluoropyridin-3-yl)pyrrolidine-2-carboxamide] | 0.70 | 0.89 | 0.92 | phosphorylated AKT levels normalized to actin levels (pAKT/actin) ([1]; 100 nM compound 2 h): 0.59
11 | 11 |  |  |  | CC(C)c1cc(Nc2nc(N3CCCC3C(=O)N(C)C)nc3c2CCC3)n[nH]1 (single isomer, unassigned) [Compound 20a, 1-(4-(5-isopropyl-1H-pyrazol-3-ylamino)-6,7-dihydro-5H-cyclopenta[d]pyrimidin-2-yl)-N,N-dimethylpyrrolidine-2-carboxamide] |  |  |  | 
12 | 77 | 77 | 16 | 76 | O=C(Nc1ccc(F)nc1)C1CCCN1c1nc2c(c(Nc3cc(C4CC4)[nH]n3)n1)CCCC2 (single isomer, unassigned) [Compound 14b, 1-(4-(5-cyclopropyl-1H-pyrazol-3-ylamino)-5,6,7,8-tetrahydroquinazolin-2-yl)-N-(6-fluoropyridin-3-yl)pyrrolidine-2-carboxamide] | 0.51 | 0.49 | 0.02 | IC50 (IGF1R): 22 nM; phosphorylated AKT levels normalized to actin levels (pAKT/actin) ([1]; 100 nM compound 2 h): 0.00; inhibition at 0.03 µM (IR; [2]): 81%; inhibition at 0.03 µM (IR; [3]): 82%; inhibition at 0.03 µM (IR; [4]): 81%
13 | 20 | 19 |  | 20 | CC(C)c1cc(Nc2nc(N3CCCC3C(=O)Nc3ccc(F)nc3)nc3c2CCC3)on1 (single isomer, unassigned) [Compound 12a, N-(6-fluoropyridin-3-yl)-1-(4-(3-isopropylisoxazol-5-ylamino)-6,7-dihydro-5H-cyclopenta[d]pyrimidin-2-yl)pyrrolidine-2-carboxamide] |  |  |  | 
14 |  |  | 16 |  | CC(C)c1cc(Nc2nc(N3CCCC3C(=O)Nc3ccc(N)nc3)nc3c2CCC3)n[nH]1 (racemic) [Compound 72, N-(6-aminopyridin-3-yl)-1-(4-(5-isopropyl-1H-pyrazol-3-ylamino)-6,7-dihydro-5H-cyclopenta[d]pyrimidin-2-yl)pyrrolidine-2-carboxamide] |  |  |  | 
15 | 35 |  | 36 |  | CC(C)c1cc(Nc2nc(N3CCCC3C(=O)Nc3ccc(F)nc3)nc3c2CC(C)(C)C3)n[nH]1 (racemic) [Compound 50, N-(6-fluoropyridin-3-yl)-1-(4-((5-isopropyl-1H-pyrazol-3-yl)amino)-6,6-dimethyl-6,7-dihydro-5H-cyclopenta[d]pyrimidin-2-yl)pyrrolidine-2-carboxamide] |  |  |  | inhibition at 0.03 µM (IR; [2]): 51%
16 |  |  |  |  | O=C(Nc1ccc(F)nc1)C1CCCCN1c1nc2c(c(Nc3cc(C4CCCC4)[nH]n3)n1)CCC2 (single isomer, unassigned) [Compound 17b, 1-(4-(5-cyclopentyl-1H-pyrazol-3-ylamino)-6,7-dihydro-5H-cyclopenta[d]pyrimidin-2-yl)-N-(6-fluoropyridin-3-yl)piperidine-2-carboxamide] | 0.83 | 0.99 | 0.95 | 
